Test results reported in PubChem BioAssay (NCI).
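Five concentrations, 48 hours, 96-well plates. At the GI50, growth is halved. Definition used: TGI = concentration required for complete inhibition of growth.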

Key:
Experiment in all cases: growth of human tumour cells (NCI), 48 h
SK-MEL-2 melanoma = test system: SK-MEL-2 melanoma
NCI-H460 lung = test system: NCI-H460 lung
A498 renal = test system: A498 renal
UACC-62 melanoma = test system: UACC-62 melanoma
CAKI-1 renal = test system: CAKI-1 renal
HCC-2998 colon = test system: HCC-2998 colon
RPMI-8226 leukemia = test system: RPMI-8226 leukemia
LOX IMVI melanoma = test system: LOX IMVI melanoma
SR leukemia = test system: SR leukemia
SNB-19 CNS = test system: SNB-19 CNS
HCT-15 colon = test system: HCT-15 colon
MDA-MB-435 = test system: MDA-MB-435
IGROV1 ovarian = test system: IGROV1 ovarian
EKVX NSCLC = test system: EKVX NSCLC
NCI-H522 lung = test system: NCI-H522 lung
PC-3 prostate = test system: PC-3 prostate
SK-MEL-5 melanoma = test system: SK-MEL-5 melanoma
UACC-257 melanoma = test system: UACC-257 melanoma
NCI-H23 lung = test system: NCI-H23 lung
OVCAR-3 ovarian = test system: OVCAR-3 ovarian
K-562 leukemia = test system: K-562 leukemia
MALME-3M melanoma = test system: MALME-3M melanoma
KM12 colon = test system: KM12 colon
OVCAR-4 ovarian = test system: OVCAR-4 ovarian
M14 melanoma = test system: M14 melanoma
SK-MEL-28 melanoma = test system: SK-MEL-28 melanoma
UO-31 renal = test system: UO-31 renal
HOP-62 NSCLC = test system: HOP-62 NSCLC
SF-539 CNS = test system: SF-539 CNS
SN12C renal = test system: SN12C renal
COLO 205 colon = test system: COLO 205 colon
SW-620 colon = test system: SW-620 colon
SNB-75 CNS = test system: SNB-75 CNS
A549 NSCLC = test system: A549 NSCLC
OVCAR-5 ovarian = test system: OVCAR-5 ovarian
MDA-MB-468 breast = test system: MDA-MB-468 breast
OVCAR-8 ovarian = test system: OVCAR-8 ovarian
MCF7 breast = test system: MCF7 breast
SF-295 CNS = test system: SF-295 CNS
BT-549 breast = test system: BT-549 breast
SK-OV-3 ovarian = test system: SK-OV-3 ovarian
HS 578T breast = test system: HS 578T breast
DU-145 prostate = test system: DU-145 prostate
U251 CNS = test system: U251 CNS
MOLT-4 leukemia = test system: MOLT-4 leukemia
RXF 393 renal = test system: RXF 393 renal
SF-268 CNS = test system: SF-268 CNS
TK-10 renal = test system: TK-10 renal
HT29 colon = test system: HT29 colon
ACHN renal = test system: ACHN renal
T-47D breast = test system: T-47D breast
HL-60(TB) leukemia = test system: HL-60(TB) leukemia
NCI-H226 lung = test system: NCI-H226 lung
CCRF-CEM leukemia = test system: CCRF-CEM leukemia
MDA-MB-231 breast = test system: MDA-MB-231 breast
786-0 renal = test system: 786-0 renal
HOP-92 NSCLC = test system: HOP-92 NSCLC
HCT-116 colon = test system: HCT-116 colon

Q: How did the GI50 (SK-MEL-2 melanoma) turn out when `N#CC1=C(c2cccs2)Nc2c(c(-c3ccccc3)nn2-c2ccccc2)C12C(=O)Nc1ccccc12` (stereo unspecified) was run?
A: 15.8 µM

Q: And the TGI (SK-MEL-2 melanoma)?
A: 38.3 µM

Q: What about the GI50 (NCI-H460 lung) of the same compound?
A: 11.3 µM

Q: And the TGI (NCI-H460 lung)?
A: 24.1 µM

Q: And the GI50 (A498 renal)?
A: 17.8 µM

Q: What about the TGI (A498 renal) of the same compound?
A: 35.3 µM

Q: And the GI50 (UACC-62 melanoma)?
A: 13.7 µM

Q: What about the TGI (UACC-62 melanoma) of the same compound?
A: 27.9 µM

Q: And the GI50 (CAKI-1 renal)?
A: 15.7 µM

Q: What about the TGI (CAKI-1 renal) of the same compound?
A: 35 µM

Q: What about the GI50 (HCC-2998 colon) of the same compound?
A: 14 µM

Q: And the TGI (HCC-2998 colon)?
A: 35.6 µM

Q: What about the GI50 (RPMI-8226 leukemia) of the same compound?
A: 8.6 µM

Q: And the TGI (RPMI-8226 leukemia)?
A: 83.7 µM

Q: And the GI50 (LOX IMVI melanoma)?
A: 14.4 µM

Q: And the TGI (LOX IMVI melanoma)?
A: 32.4 µM

Q: And the GI50 (SR leukemia)?
A: 12.7 µM

Q: What about the TGI (SR leukemia) of the same compound?
A: 58.1 µM

Q: What about the GI50 (SNB-19 CNS) of the same compound?
A: 9.25 µM

Q: What about the TGI (SNB-19 CNS) of the same compound?
A: > 100 µM

Q: And the GI50 (HCT-15 colon)?
A: 8.92 µM

Q: What about the TGI (HCT-15 colon) of the same compound?
A: 24 µM

Q: What about the GI50 (MDA-MB-435) of the same compound?
A: 17.8 µM

Q: What about the TGI (MDA-MB-435) of the same compound?
A: 37.2 µM

Q: And the GI50 (IGROV1 ovarian)?
A: 16.2 µM

Q: And the TGI (IGROV1 ovarian)?
A: 34.4 µM

Q: What about the GI50 (EKVX NSCLC) of the same compound?
A: 11.2 µM

Q: And the TGI (EKVX NSCLC)?
A: 33.9 µM

Q: And the GI50 (NCI-H522 lung)?
A: 2.99 µM

Q: And the TGI (NCI-H522 lung)?
A: 15.8 µM

Q: What about the GI50 (PC-3 prostate) of the same compound?
A: 8.38 µM

Q: And the TGI (PC-3 prostate)?
A: 24.2 µM

Q: And the GI50 (SK-MEL-5 melanoma)?
A: 13.7 µM

Q: And the TGI (SK-MEL-5 melanoma)?
A: 29.4 µM

Q: And the GI50 (UACC-257 melanoma)?
A: 18.1 µM

Q: And the TGI (UACC-257 melanoma)?
A: 48.3 µM

Q: And the GI50 (NCI-H23 lung)?
A: 12.9 µM

Q: And the TGI (NCI-H23 lung)?
A: 31.8 µM

Q: What about the GI50 (OVCAR-3 ovarian) of the same compound?
A: 20.9 µM

Q: And the TGI (OVCAR-3 ovarian)?
A: 73.2 µM

Q: And the GI50 (K-562 leukemia)?
A: 6.17 µM

Q: What about the TGI (K-562 leukemia) of the same compound?
A: 38.9 µM

Q: And the GI50 (MALME-3M melanoma)?
A: 15.9 µM

Q: What about the TGI (MALME-3M melanoma) of the same compound?
A: 30 µM

Q: What about the GI50 (KM12 colon) of the same compound?
A: 5.13 µM

Q: And the TGI (KM12 colon)?
A: 20.4 µM

Q: And the GI50 (OVCAR-4 ovarian)?
A: 8.25 µM

Q: And the TGI (OVCAR-4 ovarian)?
A: 27 µM

Q: And the GI50 (M14 melanoma)?
A: 15 µM

Q: What about the TGI (M14 melanoma) of the same compound?
A: 32.7 µM

Q: And the GI50 (SK-MEL-28 melanoma)?
A: 14.9 µM

Q: And the TGI (SK-MEL-28 melanoma)?
A: 29.3 µM

Q: And the GI50 (UO-31 renal)?
A: 9.9 µM

Q: And the TGI (UO-31 renal)?
A: > 100 µM

Q: What about the GI50 (HOP-62 NSCLC) of the same compound?
A: 17 µM

Q: And the TGI (HOP-62 NSCLC)?
A: 44.1 µM

Q: What about the GI50 (SF-539 CNS) of the same compound?
A: 15.2 µM

Q: What about the TGI (SF-539 CNS) of the same compound?
A: 31.7 µM

Q: And the GI50 (SN12C renal)?
A: 19.6 µM

Q: And the TGI (SN12C renal)?
A: > 100 µM

Q: What about the GI50 (COLO 205 colon) of the same compound?
A: 15.5 µM

Q: What about the TGI (COLO 205 colon) of the same compound?
A: 34.9 µM

Q: And the GI50 (SW-620 colon)?
A: 9.57 µM

Q: What about the TGI (SW-620 colon) of the same compound?
A: 28.6 µM

Q: What about the GI50 (SNB-75 CNS) of the same compound?
A: 8.48 µM

Q: What about the TGI (SNB-75 CNS) of the same compound?
A: 30.8 µM

Q: What about the GI50 (A549 NSCLC) of the same compound?
A: 10.2 µM

Q: And the TGI (A549 NSCLC)?
A: 23 µM

Q: What about the GI50 (OVCAR-5 ovarian) of the same compound?
A: 19.8 µM

Q: And the TGI (OVCAR-5 ovarian)?
A: 45.6 µM

Q: And the GI50 (MDA-MB-468 breast)?
A: 11.4 µM

Q: And the TGI (MDA-MB-468 breast)?
A: 32.4 µM

Q: What about the GI50 (OVCAR-8 ovarian) of the same compound?
A: 14.8 µM

Q: What about the TGI (OVCAR-8 ovarian) of the same compound?
A: 29.5 µM

Q: And the GI50 (MCF7 breast)?
A: 12.8 µM

Q: And the TGI (MCF7 breast)?
A: 26.5 µM

Q: What about the GI50 (SF-295 CNS) of the same compound?
A: 12.8 µM

Q: And the TGI (SF-295 CNS)?
A: 33.3 µM

Q: And the GI50 (BT-549 breast)?
A: 5.86 µM

Q: What about the TGI (BT-549 breast) of the same compound?
A: 21 µM

Q: And the GI50 (SK-OV-3 ovarian)?
A: 13.7 µM

Q: What about the TGI (SK-OV-3 ovarian) of the same compound?
A: 33.2 µM

Q: And the GI50 (HS 578T breast)?
A: 14.4 µM

Q: What about the TGI (HS 578T breast) of the same compound?
A: 44.9 µM

Q: What about the GI50 (DU-145 prostate) of the same compound?
A: 20.3 µM

Q: What about the TGI (DU-145 prostate) of the same compound?
A: 46.6 µM

Q: And the GI50 (U251 CNS)?
A: 6.23 µM

Q: And the TGI (U251 CNS)?
A: 20.6 µM

Q: And the GI50 (MOLT-4 leukemia)?
A: 12 µM

Q: What about the TGI (MOLT-4 leukemia) of the same compound?
A: 41.1 µM

Q: And the GI50 (RXF 393 renal)?
A: 4.91 µM

Q: And the TGI (RXF 393 renal)?
A: 21.1 µM

Q: What about the GI50 (SF-268 CNS) of the same compound?
A: 18.9 µM

Q: And the TGI (SF-268 CNS)?
A: > 100 µM

Q: What about the GI50 (TK-10 renal) of the same compound?
A: 13.6 µM

Q: And the TGI (TK-10 renal)?
A: 31.1 µM

Q: What about the GI50 (HT29 colon) of the same compound?
A: 14 µM

Q: And the TGI (HT29 colon)?
A: 28.3 µM

Q: And the GI50 (ACHN renal)?
A: 12.6 µM

Q: What about the TGI (ACHN renal) of the same compound?
A: 26.4 µM

Q: And the GI50 (T-47D breast)?
A: 18.2 µM

Q: And the TGI (T-47D breast)?
A: 69.2 µM

Q: What about the GI50 (HL-60(TB) leukemia) of the same compound?
A: 5.75 µM

Q: What about the TGI (HL-60(TB) leukemia) of the same compound?
A: 45.6 µM

Q: And the GI50 (NCI-H226 lung)?
A: 16.9 µM

Q: What about the TGI (NCI-H226 lung) of the same compound?
A: 42.5 µM

Q: What about the GI50 (CCRF-CEM leukemia) of the same compound?
A: 7.52 µM

Q: What about the TGI (CCRF-CEM leukemia) of the same compound?
A: 46.8 µM

Q: And the GI50 (MDA-MB-231 breast)?
A: 16.4 µM

Q: What about the TGI (MDA-MB-231 breast) of the same compound?
A: 33.8 µM

Q: What about the GI50 (786-0 renal) of the same compound?
A: 15.6 µM

Q: What about the TGI (786-0 renal) of the same compound?
A: 31.1 µM

Q: What about the GI50 (HOP-92 NSCLC) of the same compound?
A: 3.52 µM

Q: And the TGI (HOP-92 NSCLC)?
A: 15 µM

Q: What about the GI50 (HCT-116 colon) of the same compound?
A: 11.9 µM

Q: And the TGI (HCT-116 colon)?
A: 28.1 µM
